# How the values were obtained:
# E. coli = assay: Serial Dilution Test (Broth Titer Test), antibacterial, E. coli; type: cell-based, Escherichia coli; details: Escherichia coli, read-out: SDT, MIC
# Description: (§1) Antibacterial and antifungal activity were evaluated by the Serial Dilution Test (Broth Titer Test) wherein a series of broths containing varying dilutions of a test compound and an organism are halved starting with 1:1,000. The values shown represent the maximum dilution in parts per million at which the compound under evaluation renders complete control of the organism. Pseudomonas aeruginosa (P), Staphylococcus aureus (S), and Escherichia coli (E) were the bacterial organisms employed in this test, and the fungi employed were Aspergillus niger (A) and Rhizopus stolonifer (R).
# (§2) ^a In vitro serial dilution test (SDT), minimum inhibitory
# (§3) concentrations (MIC) against E = E. coli, P = Ps. aeruginosa, S =
# (§4) Staphylococcus aureus, A = A. niger, and R = Rhizopus stolonifer are give
# (§5) in parts per million of a biocide.
# Ps. aeruginosa = assay: Serial Dilution Test (Broth Titer Test), antibacterial, Ps. aeruginosa; type: cell-based, Pseudomonas aeruginosa; details: Pseudomonas aeruginosa, read-out: SDT, MIC
# Description: as §1, §2, §3, §4, §5
# Staphylococcus aureus = assay: Serial Dilution Test (Broth Titer Test), antibacterial, Staphylococcus aureus; type: cell-based; details: Staphylococcus aureus, read-out: SDT, MIC
# Description: as §1, §2, §3, §4, §5
# A. niger = assay: Serial Dilution Test (Broth Titer Test), antifungal, A. niger; type: cell-based, Aspergillus niger; details: Aspergillus niger, in vitro serial dilution test, read-out: SDT, MIC
# Description: as §1, §2, §3, §4, §5
# Rhizopus stolonifer = assay: Serial Dilution Test (Broth Titer Test), antifungal, Rhizopus stolonifer; type: cell-based; details: in vitro serial dilution test; R = Rhizopus stolonifer; read-out: SDT, MIC
# Description: as §1, §2, §3, §4, §5
# Helminthosporium teres = assay: whole plant or invertebrate; type: in vivo; details: Pyrenophora teres, in Hordeum vulgare; 300 ppm; read-out: Disease Control Level, BH
# Botrytis cinerea = assay: whole plant or invertebrate; type: in vivo; details: Botrytis cinerea; 300 ppm; read-out: Disease Control Level, BOT
# Erysiphe polygoni = assay: whole plant or invertebrate; type: in vivo; details: read-out: Disease Control Level, BPM
# Plasmopora viticola = assay: whole plant or invertebrate; type: in vivo; details: 300 ppm; read-out: Disease Control Level, GDM
# Piricularia oryzae = assay: whole plant or invertebrate; type: in vivo
# Phytophthora infestans = assay: whole plant or invertebrate; type: in vivo; details: Phytophthora infestans, in Solanum lycopersicum, read-out: Disease Control Level, TLB
# [1] = tested on: Puccinia graminis f. sp. tritici; assay: whole plant or invertebrate; type: in vivo, Puccinia graminis f. sp. tritici race 15B-2; details: Puccinia graminis, read-out: Disease Control Level, WSR
# [2] = Pyricularia oryzae, read-out: Disease Control Level, RB
SMILES,MIC (E. coli),MIC (Ps. aeruginosa),MIC (Staphylococcus aureus),MIC (A. niger),MIC (Rhizopus stolonifer),pest or weed control at 300 ppm (Helminthosporium teres),pest or weed control at 300 ppm (Botrytis cinerea),pest or weed control at 300 ppm (Erysiphe polygoni),pest or weed control at 300 ppm (Plasmopora viticola),"Disease Control Level, RB (Piricularia oryzae; 150 ppm)",pest or weed control at 38 ppm (Piricularia oryzae; [2]),pest or weed control at 75 ppm (Piricularia oryzae; [2]),pest or weed control at 300 ppm (Piricularia oryzae; [2]),pest or weed control at 300 ppm (Phytophthora infestans),pest or weed control at 38 ppm [1],pest or weed control at 75 ppm [1],pest or weed control at 150 ppm [1],pest or weed control at 300 ppm [1]
"O=c1cc(N2CCCCC2)sn1CCc1ccccc1 [Example 14, 5-Piperidino-2-phenethyl-4-isothiazolin-3-one]",500 µg/mL,500 µg/mL,500 µg/mL,250 µg/mL,125 µg/mL,50%,50%,50%,50%,A/E,50%,97 to 100%,97 to 100%,50%,50%,50%,50%,97 to 100%
Cc1c(SC(=S)N(C)C)sn(C2CCCCC2)c1=O [Example 11],500 µg/mL,500 µg/mL,500 µg/mL,500 µg/mL,250 µg/mL,50%,50%,50%,50%,–,–,–,50%,50%,–,–,–,70 to 89%

# Reference: US4310590A (priority 1979, dated 1982)
